Experimental data published in patent US9579325B2, “Modulators of TNF-α signaling” (Genzyme Corporation, priority 2000, dated 2017).

Tests used:
[1] = test system: L929 cells; experiment: TNF High Throughput Screen (TNF-α driven apoptosis assay); format: cell-based, mouse; settings: Mus musculus, human TNF-α + actinomycin D, read-out: TNFα IC50
Outline: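 Mouse L929 cells were pretreated with compound for 2 hours, then given human TNF-α plus actinomycin D (40 μg/ml final) overnight. Surviving cells were stained with crystal violet, solubilised in methanol and read at 595 nm. Values are % inhibition at 1 μM (0 = TNF alone, 100 = no TNF) or IC50 from sigmoidal fits of dilution series.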

[2] = test system: male rats; experiment: Inflammatory Bowel Disease model: rat DNBS distal colitis; format: in vivo; settings: 100 mg/kg orally, 7 doses
Procedure: Groups of three male rats weighing 150+/−10 g and fasted for 24 hours were used. Distal colitis was induced by intracolonic instillation of 0.5 ml/rat DNBS (2,4-dinitrobenzene sulfonic acid, 60 mg/ml in ethanol 30%) after which air (2 ml) was gently injected through the cannula to ensure that the solution remains in the colon. A test compound was administered orally 24 and 2 hours before DNBS-instillation and then daily for 5 days in a total of 7 doses. The animals were sacrificed 24 hours after the final dose of test compound administration and each colon was removed and weighed.

SMILES: N#Cc1cccc(C(C(=O)NCC(c2ccccc2)c2ccccc2)N(CCc2c[nH]cn2)C(=O)c2ccccc2C(=O)c2ccccc2)c1 (centres unmarked) [Compound 44]
- IC50 [1]: 410 nM
- Inflammatory Bowel Disease: Rat DNBS model % inhibition of colonic weight gain [2]: 44 +/− 8 @ 100 mg/kg %
